The target of assay [1] is T1, Sentrin-specific protease 1 (Homo sapiens, UniProt Q9P0U3). Nature of the assay: SENP1 catalytic domain blockers, concentration series – biochemical, kinetic FRET, dose response (AID 651697). Type of assay: functional. Particulars: read-out: IC50_Mean.
Assay [2] in a line: HEK-293T cell viability reduction – luminescence, B-cell screen hits, cytotoxicity control for BCR NF-kB inhibitor project, dose response (AID 489021).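 Further: HEK-293T cells carrying an NF-kB luciferase reporter; cells exposed to compound for about 14 hours before viability readout.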 The format is functional, cell-based.
In assay [3] the target is T1, Sentrin-specific protease 1. Nature of the assay: Dose response confirmation of small molecule inhibitors of the catalytic domain of the SUMO protease, SENP1 in a FRET assay. Type of assay: functional. As to conditions: read-out: IC50_Mean.
Assay [4] can be described thus: blockers of CRF-binding protein–CRF-R2 complex – cell-based, uHTS hits, 384-well, dose response (AID 651639). Type of assay: functional, Homo sapiens. As to conditions: read-out: IC50_Mean.
Assay [5] deals with T2, Corticotropin-releasing factor receptor 2/Corticotropin-releasing factor-binding protein (Homo sapiens, UniProt P24387+Q13324).
T2 sequence (Q13324 whole entry): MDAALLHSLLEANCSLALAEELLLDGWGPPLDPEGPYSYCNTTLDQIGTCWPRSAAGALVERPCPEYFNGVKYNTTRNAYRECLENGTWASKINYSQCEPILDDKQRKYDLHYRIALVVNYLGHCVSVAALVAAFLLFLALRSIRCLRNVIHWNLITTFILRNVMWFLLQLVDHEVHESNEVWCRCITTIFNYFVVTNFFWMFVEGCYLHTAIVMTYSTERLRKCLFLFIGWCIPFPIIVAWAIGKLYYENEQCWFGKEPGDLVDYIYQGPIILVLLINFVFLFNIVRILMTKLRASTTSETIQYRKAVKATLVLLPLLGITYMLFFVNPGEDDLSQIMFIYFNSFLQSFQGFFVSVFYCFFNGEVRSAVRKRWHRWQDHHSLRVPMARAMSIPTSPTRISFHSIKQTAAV
T2 sequence (P24387 whole entry): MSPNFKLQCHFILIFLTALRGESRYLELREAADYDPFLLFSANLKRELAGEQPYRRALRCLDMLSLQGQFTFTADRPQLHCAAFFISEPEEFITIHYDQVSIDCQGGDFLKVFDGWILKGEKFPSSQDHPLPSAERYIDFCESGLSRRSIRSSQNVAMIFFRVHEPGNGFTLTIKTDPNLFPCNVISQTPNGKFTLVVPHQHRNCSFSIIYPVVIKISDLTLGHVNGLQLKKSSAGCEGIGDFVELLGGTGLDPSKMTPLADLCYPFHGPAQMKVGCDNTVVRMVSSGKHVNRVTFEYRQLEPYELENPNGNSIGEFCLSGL
Put plainly: activators of CRF receptor 2 with binding protein – uHTS hits, confirmation (AID 602473). The format is functional. Particulars: read-out: EC50_Mean.

Assay [6] deals with T2, Corticotropin-releasing factor receptor 2/Corticotropin-releasing factor-binding protein. Nature of the assay: Dose Response confirmation of uHTS hits for small molecule antagonists of the CRF-binding protein and CRF-R2 receptor complex. As to conditions: read-out: IC50_Mean. Type of assay: functional.
For assay [7], the system named is Streptococcus. Nature of the assay: GAS UMAA2166 growth inhibition – luminescence, BacTiterGlo, counter-screen for streptokinase expression inhibitor project, dose response (AID 1915).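 Further: potency for reduction of bacterial viability or growth.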 The format is functional, organism-based. A general note: Counterscreens check selectivity or assay interference.
Assay [8] concerns the target Photoreceptor-specific nuclear receptor (Homo sapiens, UniProt Q9Y5X4). The format is functional, cell-based.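 Further: CHO-S cells with Gal4-NCOR and VP16-NR2E3 two-hybrid luciferase reporter.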
Assay [9] addresses E3 ubiquitin-protein ligase Mdm2 (Homo sapiens, UniProt Q00987). Put plainly: MDM2-luc reporter signal enhancers, multi-concentration potency testing, MDM2 ubiquitin-protein ligase inhibitor program, whole-cell format, luminescence detection, 384-well microplate (AID 1394).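 Further: MDM2 E3 inhibitors raise luminescence so EC50 is for signal enhancement.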 Type of assay: functional.
Assay [10] can be described thus: microbe, parasite or virus in culture. The format is functional. Particulars: Mycobacterium tuberculosis.
In assay [11] the target is T3, Protein RecA (Mycobacterium tuberculosis, UniProt P9WHJ3).
T3 sequence (P9WHJ3 whole entry): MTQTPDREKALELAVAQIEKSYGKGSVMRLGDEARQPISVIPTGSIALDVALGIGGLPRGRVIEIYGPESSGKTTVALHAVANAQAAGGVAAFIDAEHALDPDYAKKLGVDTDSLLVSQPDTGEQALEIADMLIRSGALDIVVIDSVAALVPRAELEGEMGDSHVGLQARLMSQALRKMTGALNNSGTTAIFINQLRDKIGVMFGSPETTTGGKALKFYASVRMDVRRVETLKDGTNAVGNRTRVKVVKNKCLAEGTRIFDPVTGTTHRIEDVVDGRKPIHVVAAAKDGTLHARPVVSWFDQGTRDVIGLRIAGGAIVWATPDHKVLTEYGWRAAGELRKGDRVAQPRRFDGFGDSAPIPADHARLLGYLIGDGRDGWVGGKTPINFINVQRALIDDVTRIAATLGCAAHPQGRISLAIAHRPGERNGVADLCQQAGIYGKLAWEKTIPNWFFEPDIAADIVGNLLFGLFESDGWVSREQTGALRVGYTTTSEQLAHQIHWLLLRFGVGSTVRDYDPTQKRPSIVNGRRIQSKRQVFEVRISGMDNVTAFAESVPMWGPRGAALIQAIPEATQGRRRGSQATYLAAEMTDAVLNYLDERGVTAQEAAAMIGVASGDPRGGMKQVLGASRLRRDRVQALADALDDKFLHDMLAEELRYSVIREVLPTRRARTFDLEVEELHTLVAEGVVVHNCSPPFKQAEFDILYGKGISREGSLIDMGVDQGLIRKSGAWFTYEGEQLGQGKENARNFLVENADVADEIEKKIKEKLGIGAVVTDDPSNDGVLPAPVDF
Nature of the assay: Fluorescence Cell-Free Homogeneous Dose Retest to Identify Inhibitors of RecA-Intein Splicing Activity. [Related pubchem assays (depositor defined):AID2097, AID2223, AID489010, AID492950]. The format is functional.

The target of assay [12] is T4, Streptokinase A (Streptococcus pyogenes serotype M1, UniProt P10520).
T4 sequence (P10520 whole entry): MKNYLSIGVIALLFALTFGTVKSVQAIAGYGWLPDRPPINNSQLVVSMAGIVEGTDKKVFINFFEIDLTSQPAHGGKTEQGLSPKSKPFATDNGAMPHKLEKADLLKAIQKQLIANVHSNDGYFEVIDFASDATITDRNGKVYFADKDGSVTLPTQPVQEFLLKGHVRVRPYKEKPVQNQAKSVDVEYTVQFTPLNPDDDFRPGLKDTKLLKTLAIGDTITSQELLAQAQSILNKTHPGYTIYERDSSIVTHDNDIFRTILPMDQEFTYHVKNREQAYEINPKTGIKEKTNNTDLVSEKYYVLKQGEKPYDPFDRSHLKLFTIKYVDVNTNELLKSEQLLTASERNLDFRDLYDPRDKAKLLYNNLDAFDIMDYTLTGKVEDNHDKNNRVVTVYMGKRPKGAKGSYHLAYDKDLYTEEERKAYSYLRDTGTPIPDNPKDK
Put plainly: viability-normalized secreted streptokinase activity reduction – plasminogen activation absorbance, OD405, dose response (AID 1914).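 Further: secreted streptokinase activity via plasminogen activation per viability signal from cell pellet.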 The format is functional, Streptococcus pyogenes M1 GAS.

Assay [13] is described as follows: cells. The format is functional, cell-based.
Assay [14] concerns Streptococcus sp. 'group A'. Put plainly: Streptococcus pyogenes SK(-)GAS viability under kanamycin – luminescence, BacTiterGlo, confirmation, counter-screen for streptokinase expression inhibitor project, dose response (AID 1900). The format is functional, organism-based.
Assay [15] concerns the target Nonstructural protein 1 (Influenza A virus, UniProt Q194T2). The format is functional, Influenza A virus (A/California/07/2009(H1N1)).
Assay [16] is described as follows: cells. Type of assay: functional, cell-based. This is another data set of the same source.
Assay [17] addresses T5, Heat shock factor protein 1 (Mus musculus, UniProt P38532).
T5 sequence (P38532 whole entry): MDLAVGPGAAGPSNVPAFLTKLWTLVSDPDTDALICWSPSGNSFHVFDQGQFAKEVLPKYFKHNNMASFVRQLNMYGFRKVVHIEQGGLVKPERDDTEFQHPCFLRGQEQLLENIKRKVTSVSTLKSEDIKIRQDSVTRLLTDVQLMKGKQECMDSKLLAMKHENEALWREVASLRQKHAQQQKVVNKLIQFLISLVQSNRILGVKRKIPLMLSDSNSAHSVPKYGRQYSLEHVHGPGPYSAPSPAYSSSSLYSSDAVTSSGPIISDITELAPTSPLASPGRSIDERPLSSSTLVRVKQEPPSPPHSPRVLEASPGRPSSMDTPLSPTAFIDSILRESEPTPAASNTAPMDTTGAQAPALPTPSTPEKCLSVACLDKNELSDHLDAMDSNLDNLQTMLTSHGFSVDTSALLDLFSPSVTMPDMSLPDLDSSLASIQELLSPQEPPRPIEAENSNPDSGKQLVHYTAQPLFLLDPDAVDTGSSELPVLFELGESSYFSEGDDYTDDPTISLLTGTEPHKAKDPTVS
Put plainly: enhancement of HSF1-driven luciferase signal – cell-based, NIH3T3, luminescence, dose retest, confirmation (AID 435004).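 Further: stress induced by proteasome inhibitor MG132 added 30 min after compound; luciferase reporter driven by HSF1 response element in NIH3T3 cells; actives raise luminescence as potentiators of the MG132 stress response.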 Type of assay: functional.

The subject of assay [18] is INS1. Put plainly: INS-1E survival protection against cytokine death – cell-based, luminescence, retest, dose response (AID 449756).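 Further: cell death triggered by IL-1 beta plus TNF-alpha plus IFN-gamma mixture; protective hits raise ATP signal compared with cytokine alone wells.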 As to conditions: Rattus norvegicus. Type of assay: functional.
The target in assay [19] is T6, Replicative DNA helicase DnaB (Mycobacterium tuberculosis, UniProt P9WMR3).
T6 sequence (P9WMR3 whole entry): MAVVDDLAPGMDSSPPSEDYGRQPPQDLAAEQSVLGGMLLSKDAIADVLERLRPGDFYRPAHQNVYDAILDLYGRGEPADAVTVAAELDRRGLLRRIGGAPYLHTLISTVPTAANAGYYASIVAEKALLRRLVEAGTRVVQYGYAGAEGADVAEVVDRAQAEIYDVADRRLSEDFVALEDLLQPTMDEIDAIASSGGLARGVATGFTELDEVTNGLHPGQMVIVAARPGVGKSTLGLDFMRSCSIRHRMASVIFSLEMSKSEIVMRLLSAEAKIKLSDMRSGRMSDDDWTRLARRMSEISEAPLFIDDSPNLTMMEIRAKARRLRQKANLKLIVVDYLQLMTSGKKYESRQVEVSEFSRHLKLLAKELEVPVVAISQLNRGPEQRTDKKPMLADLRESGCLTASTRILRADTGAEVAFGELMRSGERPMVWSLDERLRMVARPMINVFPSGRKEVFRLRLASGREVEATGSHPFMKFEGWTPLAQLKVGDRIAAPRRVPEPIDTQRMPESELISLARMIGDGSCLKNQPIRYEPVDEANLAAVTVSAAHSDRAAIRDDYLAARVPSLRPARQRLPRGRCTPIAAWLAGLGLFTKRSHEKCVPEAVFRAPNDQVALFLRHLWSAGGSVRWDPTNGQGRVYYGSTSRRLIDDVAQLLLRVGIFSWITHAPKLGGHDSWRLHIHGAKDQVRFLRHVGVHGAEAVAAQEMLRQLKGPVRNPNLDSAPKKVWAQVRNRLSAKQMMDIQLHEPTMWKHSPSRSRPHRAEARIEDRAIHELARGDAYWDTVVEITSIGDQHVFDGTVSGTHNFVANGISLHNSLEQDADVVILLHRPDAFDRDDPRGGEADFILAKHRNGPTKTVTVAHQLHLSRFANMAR
Nature of the assay: DnaB intein splicing inhibitors, dose response, biochemical, cell-free fluorescence (AID 449749). The format is functional.

Assay [20] deals with Hepatocyte nuclear factor 4-alpha (Homo sapiens, UniProt P41235). The format is functional, cell-based.
In assay [21] the target is T7, ATP-dependent translocase ABCB1 (Homo sapiens, UniProt P08183). Put plainly: inhibition of BCRP-mediated JC-1 efflux – Ig-MXP3 cells, flow cytometry, set 2, dose response (AID 504566).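 Further: flow cytometry median green fluorescence of retained JC-1 dye; potency of efflux pump inhibition measured as rising substrate retention.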 Particulars: read-out: EC50_MICROM_. Type of assay: functional. (In general: In flow cytometry, cells or beads pass a laser one at a time.)
The target in assay [22] is T7, ATP-dependent translocase ABCB1. Nature of the assay: P-gp JC-1 efflux blockade concentration-response – Jurkat-DNR cells, flow cytometry, set 2, dose response (AID 504569).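 Further: potency of pump inhibitors that raise cellular JC-1 green fluorescence up to the nicardipine level.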 The format is functional. As to conditions: read-out: EC50_MICROM_.

For orientation: AC50 means the concentration at which the activity in the assay is half-maximal.

The source made the active and inactive calls.

T1 sequence (Q9P0U3 whole entry, the tested form may be a part): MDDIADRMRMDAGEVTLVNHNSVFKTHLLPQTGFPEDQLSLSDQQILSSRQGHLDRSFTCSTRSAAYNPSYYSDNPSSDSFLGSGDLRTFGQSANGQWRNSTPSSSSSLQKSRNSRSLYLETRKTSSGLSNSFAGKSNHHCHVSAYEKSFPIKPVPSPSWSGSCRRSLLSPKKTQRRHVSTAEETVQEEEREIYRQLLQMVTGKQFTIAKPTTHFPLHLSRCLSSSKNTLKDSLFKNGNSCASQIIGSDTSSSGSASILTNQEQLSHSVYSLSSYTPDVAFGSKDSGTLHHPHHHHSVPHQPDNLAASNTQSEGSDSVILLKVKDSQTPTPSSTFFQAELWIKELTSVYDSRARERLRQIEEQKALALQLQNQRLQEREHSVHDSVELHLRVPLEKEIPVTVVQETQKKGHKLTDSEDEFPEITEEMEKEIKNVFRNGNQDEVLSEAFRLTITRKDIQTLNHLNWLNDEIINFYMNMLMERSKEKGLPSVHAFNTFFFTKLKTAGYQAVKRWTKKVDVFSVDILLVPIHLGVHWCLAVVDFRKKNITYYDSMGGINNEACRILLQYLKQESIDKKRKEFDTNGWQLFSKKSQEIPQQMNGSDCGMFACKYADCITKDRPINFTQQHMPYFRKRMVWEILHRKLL
T7 sequence (P08183 whole entry): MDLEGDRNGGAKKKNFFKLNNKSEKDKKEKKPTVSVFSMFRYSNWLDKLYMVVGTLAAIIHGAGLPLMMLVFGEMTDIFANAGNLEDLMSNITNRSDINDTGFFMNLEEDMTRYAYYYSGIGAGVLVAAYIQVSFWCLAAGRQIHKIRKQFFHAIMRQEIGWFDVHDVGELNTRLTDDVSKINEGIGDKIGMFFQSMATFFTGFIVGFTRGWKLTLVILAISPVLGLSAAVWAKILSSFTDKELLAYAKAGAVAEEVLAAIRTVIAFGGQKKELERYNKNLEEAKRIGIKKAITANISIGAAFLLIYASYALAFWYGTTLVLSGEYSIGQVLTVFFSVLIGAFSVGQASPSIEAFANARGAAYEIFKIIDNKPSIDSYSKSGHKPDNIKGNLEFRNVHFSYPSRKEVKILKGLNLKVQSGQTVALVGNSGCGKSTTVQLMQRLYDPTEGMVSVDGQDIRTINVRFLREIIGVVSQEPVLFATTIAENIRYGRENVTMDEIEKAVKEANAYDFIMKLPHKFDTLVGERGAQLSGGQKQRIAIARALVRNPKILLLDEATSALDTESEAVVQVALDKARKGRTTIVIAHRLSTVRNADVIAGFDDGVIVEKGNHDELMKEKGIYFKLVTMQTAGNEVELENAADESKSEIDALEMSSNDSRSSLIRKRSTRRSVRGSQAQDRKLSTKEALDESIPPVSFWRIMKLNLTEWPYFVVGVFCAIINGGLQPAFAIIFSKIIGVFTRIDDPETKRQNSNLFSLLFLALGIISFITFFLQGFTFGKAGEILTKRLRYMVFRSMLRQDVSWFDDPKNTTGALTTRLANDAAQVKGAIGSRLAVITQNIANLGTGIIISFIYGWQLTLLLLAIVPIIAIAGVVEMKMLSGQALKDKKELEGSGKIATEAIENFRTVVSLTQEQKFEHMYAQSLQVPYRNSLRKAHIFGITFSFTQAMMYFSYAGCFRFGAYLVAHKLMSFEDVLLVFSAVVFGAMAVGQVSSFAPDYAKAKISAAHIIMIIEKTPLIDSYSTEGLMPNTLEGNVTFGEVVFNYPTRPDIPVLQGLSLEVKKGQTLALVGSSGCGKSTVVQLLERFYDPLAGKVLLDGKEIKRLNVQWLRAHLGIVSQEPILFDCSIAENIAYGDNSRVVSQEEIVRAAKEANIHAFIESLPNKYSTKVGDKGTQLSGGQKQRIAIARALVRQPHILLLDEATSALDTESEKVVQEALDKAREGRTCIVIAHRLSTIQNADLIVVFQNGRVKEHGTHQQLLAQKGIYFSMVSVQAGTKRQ
Sequence of Hepatocyte nuclear factor 4-alpha (P41235 whole entry): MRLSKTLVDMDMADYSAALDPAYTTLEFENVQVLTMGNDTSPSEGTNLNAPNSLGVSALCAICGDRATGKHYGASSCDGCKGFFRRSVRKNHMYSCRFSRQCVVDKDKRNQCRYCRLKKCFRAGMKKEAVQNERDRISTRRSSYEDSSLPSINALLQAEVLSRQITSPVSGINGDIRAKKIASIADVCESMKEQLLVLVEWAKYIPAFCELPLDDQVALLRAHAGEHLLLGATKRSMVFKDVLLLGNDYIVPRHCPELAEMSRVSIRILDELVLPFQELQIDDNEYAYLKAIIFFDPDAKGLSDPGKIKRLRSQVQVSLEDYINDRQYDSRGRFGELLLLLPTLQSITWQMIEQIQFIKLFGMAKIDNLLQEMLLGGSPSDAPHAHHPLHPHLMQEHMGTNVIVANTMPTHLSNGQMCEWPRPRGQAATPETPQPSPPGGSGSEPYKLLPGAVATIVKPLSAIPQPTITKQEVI
Sequence of E3 ubiquitin-protein ligase Mdm2 (Q00987 whole entry): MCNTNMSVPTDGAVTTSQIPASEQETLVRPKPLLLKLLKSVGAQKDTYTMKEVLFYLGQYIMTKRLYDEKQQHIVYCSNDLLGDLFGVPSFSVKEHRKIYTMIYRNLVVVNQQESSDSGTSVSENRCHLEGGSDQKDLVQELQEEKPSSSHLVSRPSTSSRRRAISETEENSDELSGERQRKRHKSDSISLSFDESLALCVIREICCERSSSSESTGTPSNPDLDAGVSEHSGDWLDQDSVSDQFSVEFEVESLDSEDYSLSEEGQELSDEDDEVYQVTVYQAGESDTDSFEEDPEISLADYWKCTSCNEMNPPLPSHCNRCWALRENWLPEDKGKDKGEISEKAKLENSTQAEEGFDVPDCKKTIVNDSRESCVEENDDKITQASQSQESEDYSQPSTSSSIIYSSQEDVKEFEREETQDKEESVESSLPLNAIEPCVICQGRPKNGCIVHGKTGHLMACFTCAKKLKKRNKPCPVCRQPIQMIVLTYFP
Sequence of Nonstructural protein 1 (Q194T2 whole entry): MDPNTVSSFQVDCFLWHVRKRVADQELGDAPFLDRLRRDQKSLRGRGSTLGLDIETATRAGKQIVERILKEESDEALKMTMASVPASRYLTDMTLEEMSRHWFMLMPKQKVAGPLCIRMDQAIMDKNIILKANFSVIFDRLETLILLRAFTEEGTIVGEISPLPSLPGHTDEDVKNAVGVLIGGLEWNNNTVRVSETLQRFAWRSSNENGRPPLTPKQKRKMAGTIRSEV
Sequence of Photoreceptor-specific nuclear receptor (Q9Y5X4 whole entry, the tested form may be a part): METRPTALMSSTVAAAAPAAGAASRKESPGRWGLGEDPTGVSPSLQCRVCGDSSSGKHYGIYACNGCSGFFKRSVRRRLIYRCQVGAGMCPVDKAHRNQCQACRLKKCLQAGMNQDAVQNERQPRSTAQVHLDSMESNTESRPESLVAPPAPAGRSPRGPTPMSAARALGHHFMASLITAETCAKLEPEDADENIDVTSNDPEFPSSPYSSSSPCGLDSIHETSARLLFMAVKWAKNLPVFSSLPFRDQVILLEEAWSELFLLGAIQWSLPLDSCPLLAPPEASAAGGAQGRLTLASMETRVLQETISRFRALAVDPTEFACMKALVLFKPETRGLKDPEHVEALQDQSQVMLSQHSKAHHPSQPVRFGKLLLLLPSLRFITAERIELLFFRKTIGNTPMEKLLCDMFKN

In the case of `N#CC1=C(N)Oc2cc(Nc3ccccc3)ccc2C1c1ccncc1` (configuration not stated), the IC50 in assay [1] was 41.9 µM (inactive); in [2], 48.3 µM (inactive); in assay [3], 30.5 µM (inactive).
For the compound `COCCN=C(S)N1CCc2cc(OC)c(OC)cc2C1COc1cc(C)cc(C)c1` (configuration not stated), the IC50 was > 20 µM (inactive) in assay [4] and 32.1 µM (active) in assay [6]. The EC50 in [5] is > 53 µM (inactive).
Turning to `Oc1[nH]c2ccccc2c1N=NC(=S)N1CCOCC1`, the EC50 was 5.64 µM (active) in [7]; 2.24 µM (not active) in assay [9]; 12.9 µM (active) in assay [11]; > 150 µM (not active) in [12]; > 350 µM (not active) in assay [13]; 0.271 µM (active) in [14]. In addition, the EC50 in assay [16] is 7.37 µM (active); in assay [17] it was 3.31 µM (inconclusive). The IC50 is 4.03 µM (active) in assay [8] and 4.88 µM (active) in assay [15]. Moreover, in assay [10], the CC50 was 5.25 µM (active). Also, the AC50 in assay [18] is 2.25 µM (active); in [19], > 380 µM (inactive).
With `Cc1cccc(C)c1NC(=O)C(c1ccc(-c2ccccc2)cc1)n1c(=O)c(-c2ccco2)nc2ccccc21` (configuration not stated), the IC50 in assay [20] is 1.34 µM (active).
Consider `Cc1ccc(-c2cc3nc(C)cc(N4CCN(C(=O)c5ccoc5)CC4)n3n2)cc1`, for which the EC50 in [21] is 4.95 µM (active); in assay [22], 5.56 µM (active).
